# Laboratory results from US20110046228A1 (priority 2009, published 2011).
# Values joined by “and” are separate entries in the source; they are usually repeats but may differ in a detail not shown here. Equal values may be shown once. Read-outs that look alike come from different tables or passages of the source.
# Assays:
# [1] = with a single glass (200-250 mL) of grapefruit juice; cited from earlier work
# [2] = system: individuals with Behcet's syndrome (or disease); conditions: adjusted to bodyweight, cited from earlier work
# [3] = design: AUC0-t, Geometric Mean: unit not given beside the values
# clinical = conditions: both, human, plasma, oral, 0.6 mg; for AUC(0-t): AUC0-t; for AUC(0-inf): AUC0-∞; for CL/F: Weight-Adjusted CL/F
# Procedure: This study is an open-label, non-randomized, single-center, one-sequence, two-period drug interaction study conducted in healthy male and female volunteers. Twenty-four (24) non-smoking, non-obese adult volunteers will be enrolled. All subjects will be dosed and studied as a single cohort, with each subject receiving the same treatment in a non-randomized fashion. As described below, a single dose of colchicine, 0.6 mg, will be administered alone on Day 1, and then co-administered with the grapefruit juice on Day 18. Grapefruit juice will be administered for 4 consecutive days (1×240 mL twice daily Days 15-17 and Day 18 (PM) alone and co-administered with a single 0.6 mg colchicine tablet in the morning on Day 18 (AM) (1×240 mL) beginning on the morning of Day 15, with the last 240 mL grapefruit juice dose administered in the evening of Day 18. A 14-day washout period will be completed after the first colchicine dose on Day 1 and prior to the administration of the first grapefruit juice dose on Day 15.
# Grapefruit juice ([…] ® brand) will be purchased and stored according to the labeled instructions. Subjects in the study will consume 240 mL (8 fluid ounces) of juice every 12 hours for 8 doses (4 day regimen) to ensure the maximum inhibitory effect.
# Following a screening period of up to 28 days, 24 healthy male and female volunteers will be enrolled. Subjects will be confined to the study unit for approximately 1.5 days on two separate occasions starting at least 10 hours prior to dosing on the evening of Day 1 and Day 17 until 24 hours following study drug administration on Day 1 and Day 18. In addition to confinement, study subjects will return to the clinical study site for the collection of blood samples 36, 48, 72, and 96 hours post dosing during both colchicine pharmacokinetic sampling periods. Total study participation, exclusive of up to 28 days of screening, will be approximately 22 days, during which subjects will be confined on two occasions for a total confinement of approximately 3 days.
# All subjects will receive a single 0.6 mg dose of colchicine on Day 1, followed by a 14-day washout period in which subjects will not be confined at study site. At discharge on Day 2 (at approximately 8 AM), study subjects will be instructed to return to the clinical site on Days 15 through 17 in the mornings and evenings to consume (1×240 mL, i.e., 8 fluid ounces) grapefruit juice twice daily on Days 15 through 17 in a ‘directly-observed’ fashion. On the evening of Day 17, study participants will return to the clinic for their final study confinement period. In the morning of Day 18, study subjects will receive a single 0.6 mg colchicine dose with a 240 mL serving of grapefruit juice. In the evening of Day 18, study subjects will receive their final 240 mL serving of grapefruit juice administered alone.
# A minimum fasting period of 10 hours (overnight fast) will be in effect before administration of colchicine on Day 1 and prior to the administration of colchicine and grapefruit juice on Day 18. Fasting will continue for 4 hours post-dosing on Days 1 and 18 after the morning administration. Grapefruit juice doses administered on Days 15-17 and Day 18 (PM) will not be in a fasted state. For colchicine, medication must be swallowed whole, not chewed. For grapefruit juice, the entire serving must be consumed. For all treatments, the subjects will not be permitted to lie down for the first 4 hours following administration of drug to ensure proper stomach emptying. On both of the confined study days after the morning administrations (Day 1 and Day 18), water will be allowed ad libitum beginning 2 hours post-dose. Intake of all study medications will be supervised. Standardized meals will be served according to a pre-determined schedule throughout the study.
# Serial blood samples will be collected by individual venipuncture up to 96 hours following drug administration on Day 1 and Day 18.
# [4] = individual subjects, single 0.6 mg colchicine, plasma, A Day 1, A + B Day 18
# [5] = maximum of N = 21, single 0.6 mg colchicine, plasma
# [6] = mean of N = 21, single 0.6 mg colchicine, plasma
# [7] = median of N = 21, single 0.6 mg colchicine, plasma
# [8] = minimum of N = 21, single 0.6 mg colchicine, plasma
# [9] = single 0.6 mg colchicine dose, plasma
# [10] = Least Squares Mean, Non-Transformed Data, single 0.6 mg colchicine dose
# [11] = Mean, mean of N = 21, single 0.6 mg colchicine
# [12] = Median, median of N = 21, single 0.6 mg colchicine
# [13] = Geometric Mean, single 0.6 mg colchicine dose, N = 21, based on least squares means of ln-transformed values
structure (smiles),measurement,setting,value
CCOC(=O)C1=C(C)NC(C)=C(C(=O)OC)C1c1cccc(Cl)c1Cl (stereo not shown) [felodipine],Change in AUC and Cmax of orally administered felodipine,[1],several-fold increase
"COc1cc2c(c(OC)c1OC)-c1ccc(OC)c(=O)cc1[C@@H](NC(C)=O)CC2 [Treatment A, (−)-N-[(7S, 12aS)-1,2,3,10-tetramethoxy-9-oxo-5,6,7,9-tetrahydrobenzo[a]heptalen-7-yl]-acetamide]",Clinical effect in Behcet's disease,[2]; 1-2 mg daily,"reduced the frequency of genital ulcers, erythema nodosum, and arthritis among women and reduced the occurrence of arthritis among men"
same,Clinical effect in Behcet's syndrome,[2]; 1-2.4 mg daily,"reduced the frequency of genital ulcers, erythema nodosum, and arthritis among women and reduced the occurrence of arthritis among men"
same,AUC0-∞,[3]; [4],10.8336 ng·h/mL and 14.15474 ng·h/mL and 9.5485 ng·h/mL and 13.07636 ng·h/mL and 20.67702 ng·h/mL and 9.19604 ng·h/mL and 7.56206 ng·h/mL and 10.95321 ng·h/mL and 12.50531 ng·h/mL and 8.2513 ng·h/mL and 7.55929 ng·h/mL and 21.66786 ng·h/mL and 8.57677 ng·h/mL and 10.79516 ng·h/mL and 4.54846 ng·h/mL and 9.55313 ng·h/mL
same,CL/F,[3]; [4],55.38 L/h and 42.39 L/h and 62.84 L/h and 57.10 L/h and 45.88 L/h and 29.02 L/h and 65.25 L/h and 79.34 L/h and 54.78 L/h and 57.58 L/h and 51.63 L/h and 57.64 L/h and 47.98 L/h and 72.72 L/h and 79.37 L/h and 27.69 L/h and 58.47 L/h and 69.96 L/h and 55.58 L/h and 131.91 L/h and 62.81 L/h
same,Kel,[3]; [4],0.1619 h⁻¹ and 0.2194 h⁻¹ and 0.1653 h⁻¹ and 0.1160 h⁻¹ and 0.1881 h⁻¹ and 0.0484 h⁻¹ and 0.2291 h⁻¹ and 0.1859 h⁻¹ and 0.1655 h⁻¹ and 0.1563 h⁻¹ and 0.1843 h⁻¹ and 0.1946 h⁻¹ and 0.1506 h⁻¹ and 0.1355 h⁻¹ and 0.2178 h⁻¹ and 0.0847 h⁻¹ and 0.1512 h⁻¹ and 0.1866 h⁻¹ and 0.1851 h⁻¹ and 0.2814 h⁻¹ and 0.1925 h⁻¹
same,Tmax,[3]; [4],1.00 h and 2.00 h
same,Varea/F,[3]; [4],342.07 L and 193.19 L and 380.20 L and 492.22 L and 243.91 L and 599.39 L and 284.79 L and 426.86 L and 331.07 L and 368.37 L and 280.11 L and 296.22 L and 318.56 L and 536.77 L and 364.36 L and 327.00 L and 386.70 L and 374.82 L and 300.24 L and 468.69 L and 326.22 L
same,t1/2,[3]; [4],4.28 h and 3.16 h and 4.19 h and 5.98 h and 3.68 h and 14.32 h and 3.03 h and 3.73 h and 4.43 h and 3.76 h and 3.56 h and 4.60 h and 5.12 h and 3.18 h and 8.19 h and 4.58 h and 3.71 h and 3.74 h and 2.46 h and 3.60 h
same,"AUC0-t, Max",[3]; [5],18.3968 ng·h/mL
same,"AUC0-∞, Max",[3]; [5],21.66786 ng·h/mL
same,"CL/F, Max",[3]; [5],131.91 L/h
same,"Cmax, Max",[3]; [5],3.758 ng/mL
same,"Kel, Max",[3]; [5],0.2814 h⁻¹
same,"Tmax, Max",[3]; [5],2.00 h
same,"Varea/F, Max",[3]; [5],599.39 L
same,"t1/2, Max",[3]; [5],14.32 h
same,"CL/F, Mean",[3]; [6],60.25 L/h
same,"Kel, Mean",[3]; [6],0.1714 h⁻¹
same,"Varea/F, Mean",[3]; [6],363.89 L
same,"CL/F, Median",[3]; [7],57.58 L/h
same,"Kel, Median",[3]; [7],0.1843 h⁻¹
same,"Varea/F, Median",[3]; [7],342.07 L
same,"t1/2, Median",[3]; [7],3.76 h
same,"AUC0-t, Min",[3]; [8],3.83287 ng·h/mL
same,"AUC0-∞, Min",[3]; [8],4.54846 ng·h/mL
same,"CL/F, Min",[3]; [8],27.69 L/h
same,"Cmax, Min",[3]; [8],0.8452 ng/mL
same,"Kel, Min",[3]; [8],0.0484 h⁻¹
same,"Tmax, Min",[3]; [8],1.00 h
same,"Varea/F, Min",[3]; [8],193.19 L
same,"t1/2, Min",[3]; [8],2.46 h
same,Bioequivalence of oral colchicine with grapefruit juice vs in the absence of grapefruit juice,[3]; recommended maximum daily amount of grapefruit juice (about 16 fluid ounces daily),bioequivalent
same,"Kel, Least Squares Mean, Non-Transformed Data",[3]; [9],0.1714
same,"Varea/F, Least Squares Mean, Non-Transformed Data",[3]; [9],363.89
same,"AUC0-t, Geometric Mean","[3]; single 0.6 mg colchicine dose, plasma, N = 21, based on least squares means of ln-transformed values",8806.78
same,AUC(0-t),clinical; [10],9.33 ng·h/mL
same,AUC(0-t),clinical; [11],9.33 ng·h/mL
same,AUC(0-t),clinical; [12],8.84 ng·h/mL
same,AUC(0-inf),clinical; [13],10.5 ng·h/mL
same,AUC(0-inf),clinical; [10],11.1 ng·h/mL
same,AUC(0-inf),clinical; [11],11.1 ng·h/mL
same,AUC(0-inf),clinical; [12],10.4 ng·h/mL
same,Cmax,clinical; [13],2.07 ng/mL
same,Cmax,clinical; [10],2.17 ng/mL
same,Cmax,clinical; [11],2.17 ng/mL
same,Cmax,clinical; [12],2.06 ng/mL
same,Tmax,clinical; [10],1.24 h
same,Tmax,clinical; [11],1.24 h
same,Tmax,clinical; [12],1 h
same,CL/F,clinical; [10],12.3 mL/min/kg
same,CL/F,clinical; [11],12.3 mL/min/kg
same,CL/F,clinical; [12],11.3 mL/min/kg
same,half-life,"clinical; t1/2, Least Squares Mean, Non-Transformed Data, single 0.6 mg colchicine dose",4.64 h
same,half-life,"clinical; t1/2, Mean, mean of N = 21, single 0.6 mg colchicine",4.64 h
